The results in this text go back to PubChem BioAssay AID1259407 (Chemical Carcinogenesis Research Information System (CCRIS), 2018).

Activity calls are given as the source filed them. No rule for the calls is given here.

In this data set the test system is CCRIS mutagenicity, Ames/micronucleus/aberration tests. The experiment in a line: CCRIS mutagenicity studies.
The mark [1] stands for this setting: Test System: AMES SALMONELLA TYPHIMURIUM, Strain/Indicator: TA98, Metabolic Activation: NONE, Method: PREINCUBATION
The mark [2] stands for this setting: Test System: AMES SALMONELLA TYPHIMURIUM, Strain/Indicator: TA98, Metabolic Activation: NONE, Method: STANDARD PLATE.
Where [3] appears, read: Test System: AMES SALMONELLA TYPHIMURIUM, Strain/Indicator: TA98, Metabolic Activation: RAT, LIVER, S-9, AROCLOR 1254, Method: STANDARD PLATE.
Where [4] appears, read: Test System: AMES SALMONELLA TYPHIMURIUM, Strain/Indicator: TA100, Metabolic Activation: NONE, Method: PREINCUBATION

Regarding `Cc1ccccc1Cl`, the mutagenic call (Test System: AMES SALMONELLA TYPHIMURIUM, Strain/Indicator: TA98, Metabolic Activation: HAMSTER, LIVER, S-9, AROCLOR 1254, Method: STANDARD PLATE) is “inactive; negative”; the mutagenic call under setting [1] is “inactive; negative”; the mutagenic call under setting [2] is “inactive; negative”; the mutagenic call (Test System: AMES SALMONELLA TYPHIMURIUM, Strain/Indicator: TA98, Metabolic Activation: RAT LIVER S-9, PHENOBARBITAL AND BETA-NAPHTHOFLAVONE, Method: PREINCUBATION) is “inactive; negative”; the mutagenic call under setting [3] was “inactive; negative”; the mutagenic call (Test System: AMES SALMONELLA TYPHIMURIUM, Strain/Indicator: TA100, Metabolic Activation: HAMSTER, LIVER, S-9, AROCLOR 1254, Method: STANDARD PLATE) is “inactive; negative”. Besides, the mutagenic call was “inactive; negative” under setting [4]; “inactive; negative” (Test System: AMES SALMONELLA TYPHIMURIUM, Strain/Indicator: TA100, Metabolic Activation: NONE, Method: STANDARD PLATE); “inactive; negative” (Test System: AMES SALMONELLA TYPHIMURIUM, Strain/Indicator: TA100, Metabolic Activation: RAT LIVER S-9, PHENOBARBITAL AND BETA-NAPHTHOFLAVONE, Method: PREINCUBATION); “inactive; negative” (Test System: AMES SALMONELLA TYPHIMURIUM, Strain/Indicator: TA100, Metabolic Activation: RAT, LIVER, S-9, AROCLOR 1254, Method: STANDARD PLATE); “inactive; negative” (Test System: AMES SALMONELLA TYPHIMURIUM, Strain/Indicator: TA102, Metabolic Activation: NONE, Method: PREINCUBATION); “inactive; negative” (Test System: AMES SALMONELLA TYPHIMURIUM, Strain/Indicator: TA102, Metabolic Activation: RAT LIVER S-9, PHENOBARBITAL AND BETA-NAPHTHOFLAVONE, Method: PREINCUBATION). The mutagenic call was “inactive; negative” (Test System: AMES SALMONELLA TYPHIMURIUM, Strain/Indicator: TA104, Metabolic Activation: NONE, Method: PREINCUBATION); “inactive; negative” (Test System: AMES SALMONELLA TYPHIMURIUM, Strain/Indicator: TA104, Metabolic Activation: RAT LIVER S-9, PHENOBARBITAL AND BETA-NAPHTHOFLAVONE, Method: PREINCUBATION); “inactive; negative” (Test System: AMES SALMONELLA TYPHIMURIUM, Strain/Indicator: TA1535, Metabolic Activation: HAMSTER, LIVER, S-9, AROCLOR 1254, Method: STANDARD PLATE); “inactive; negative” (Test System: AMES SALMONELLA TYPHIMURIUM, Strain/Indicator: TA1535, Metabolic Activation: NONE, Method: PREINCUBATION); “inactive; negative” (Test System: AMES SALMONELLA TYPHIMURIUM, Strain/Indicator: TA1535, Metabolic Activation: NONE, Method: STANDARD PLATE); “inactive; negative” (Test System: AMES SALMONELLA TYPHIMURIUM, Strain/Indicator: TA1535, Metabolic Activation: RAT LIVER S-9, PHENOBARBITAL AND BETA-NAPHTHOFLAVONE, Method: PREINCUBATION). The mutagenic call reads like this: (Test System: AMES SALMONELLA TYPHIMURIUM, Strain/Indicator: TA1535, Metabolic Activation: RAT, LIVER, S-9, AROCLOR 1254, Method: STANDARD PLATE) “inactive; negative”; (Test System: AMES SALMONELLA TYPHIMURIUM, Strain/Indicator: TA1537, Metabolic Activation: HAMSTER, LIVER, S-9, AROCLOR 1254, Method: STANDARD PLATE) “inactive; negative”; (Test System: AMES SALMONELLA TYPHIMURIUM, Strain/Indicator: TA1537, Metabolic Activation: NONE, Method: PREINCUBATION) “inactive; negative”; (Test System: AMES SALMONELLA TYPHIMURIUM, Strain/Indicator: TA1537, Metabolic Activation: NONE, Method: STANDARD PLATE) “inactive; negative”; (Test System: AMES SALMONELLA TYPHIMURIUM, Strain/Indicator: TA1537, Metabolic Activation: RAT LIVER S-9, PHENOBARBITAL AND BETA-NAPHTHOFLAVONE, Method: PREINCUBATION) “inactive; negative”; (Test System: AMES SALMONELLA TYPHIMURIUM, Strain/Indicator: TA1537, Metabolic Activation: RAT, LIVER, S-9, AROCLOR 1254, Method: STANDARD PLATE) “inactive; negative”. Further, the mutagenic call is “inactive; negative” (Test System: AMES SALMONELLA TYPHIMURIUM, Strain/Indicator: TA1538, Metabolic Activation: HAMSTER, LIVER, S-9, AROCLOR 1254, Method: STANDARD PLATE); “inactive; negative” (Test System: AMES SALMONELLA TYPHIMURIUM, Strain/Indicator: TA1538, Metabolic Activation: NONE, Method: PREINCUBATION); “inactive; negative” (Test System: AMES SALMONELLA TYPHIMURIUM, Strain/Indicator: TA1538, Metabolic Activation: NONE, Method: STANDARD PLATE); “inactive; negative” (Test System: AMES SALMONELLA TYPHIMURIUM, Strain/Indicator: TA1538, Metabolic Activation: RAT LIVER S-9, PHENOBARBITAL AND BETA-NAPHTHOFLAVONE, Method: PREINCUBATION); “inactive; negative” (Test System: AMES SALMONELLA TYPHIMURIUM, Strain/Indicator: TA1538, Metabolic Activation: RAT, LIVER, S-9, AROCLOR 1254, Method: STANDARD PLATE); “inactive; negative” (Test System: E. COLI, Strain/Indicator: WP2UVRA/PKM101, Metabolic Activation: RAT LIVER S-9, PHENOBARBITAL AND BETA-NAPHTHOFLAVONE, Method: PREINCUBATION). Moreover, the mutagenic call runs as follows: (Test System: E. COLI, Strain/Indicator: WP2UVRA, Metabolic Activation: NONE, Method: PREINCUBATION) “inactive; negative”; (Test System: E. COLI, Strain/Indicator: WP2UVRA, Metabolic Activation: RAT LIVER S-9, PHENOBARBITAL AND BETA-NAPHTHOFLAVONE, Method: PREINCUBATION) “inactive; negative”; (Test System: E.COLI, Strain/Indicator: WP2UVRA/PKM101, Metabolic Activation: NONE, Method: PREINCUBATION) “inactive; negative”; (Test System: Mouse lymphoma, Strain/Indicator: L5178Y (tk+/tk-), Metabolic Activation: None, Method: Suspension/plate) “inactive; negative”; (Test System: Mouse lymphoma, Strain/Indicator: L5178Y (tk+/tk-), Metabolic Activation: Rat, Liver, S-9, Aroclor 1254, Method: Suspension/plate) “inactive; negative”.

Consider `CCN(CC)c1ccc(N=Nc2c(Cl)cc([N+](=O)[O-])cc2[N+](=O)[O-])c(NC(C)=O)c1`, for which the mutagenic call (End Point: IN VITRO CHROMOSOMAL ABERRATIONS, Test System: CHL CELLS, Metabolic Activation: NONE) is “inactive; negative; precipitation of test chemical observed above 0.01 mg/ml”.

Regarding `Cc1ccc2cc3c(cc2c1)-c1cccc2cccc-3c12`, under “Test System: AMES SALMONELLA TYPHIMURIUM, Strain/Indicator: TA100, Metabolic Activation: RAT, LIVER, S-9, AROCLOR 1254”, the mutagenic call was “active; positive”.

Turning to `O=[N+]([O-])c1ccc(-[n+]2nc(-c3ccccc3)nn2-c2ccc(I)cc2)cc1`, the mutagenic call reads like this: (Test System: AMES SALMONELLA TYPHIMURIUM, Strain/Indicator: TA97, Metabolic Activation: NONE, Method: SPOT TEST) “inactive; negative”; under setting [1], “inactive; negative”; (Test System: AMES SALMONELLA TYPHIMURIUM, Strain/Indicator: TA98, Metabolic Activation: NONE, Method: SPOT TEST) “inactive; negative”; under setting [4], “inactive; negative”; (Test System: AMES SALMONELLA TYPHIMURIUM, Strain/Indicator: TA100, Metabolic Activation: NONE, Method: SPOT TEST) “inactive; negative”; (Test System: AMES SALMONELLA TYPHIMURIUM, Strain/Indicator: TA102, Metabolic Activation: NONE, Method: SPOT TEST) “inactive; negative”.

As for `Cc1c([N+](=O)[O-])cnc2c1nc1c(C)cccn12`, the mutagenic call by setting is: under setting [2], “active; positive”; (Test System: AMES SALMONELLA TYPHIMURIUM, Strain/Indicator: TA98, Metabolic Activation: RAT, LIVER, CYTOSOL, AROCLOR 1254, Method: STANDARD PLATE) “active; positive”; (Test System: AMES SALMONELLA TYPHIMURIUM, Strain/Indicator: TA98, Metabolic Activation: RAT, LIVER, MICROSOMES, AROCLOR 1254, Method: STANDARD PLATE) “active; positive”; under setting [3], “active; positive”.

On to `Nc1nnc(/C(=C/c2ccc([N+](=O)[O-])o2)c2ccco2)o1`, for which the mutagenic call (Test System: UDS HUMAN FIBROBLASTS, Strain/Indicator: THY INCORP (NON-S-PHASE), Metabolic Activation: NONE, Method: AUTORADIOGRAPHY) is “active; positive”.
